Test results as given in patent US4263318A, “N-alkoxy- and N-aryloxysulfinylcarbamate esters” (priority 1979, dated 1981).
Like-named read-outs stand apart in the source and are kept apart here.

Legend:
Type in all cases: in vivo
[1] = system: house flies, Musca domestica; experiment: Insecticidal activity against house flies (topical on the notum, mortality at 24 h); details: for LD50: Musca domestica, topical, read-out: House flies LD50
Method: (§1) Representative compounds of the N-aryloxy- and N-alkoxysulfinylcarbamate esters of the invention were tested for insecticidal activity against two insect species, house flies, Musca domestica, and mosquito larvae, Culex pipiens. Stock 1% concentrated solutions of each of the test compounds were made in acetone, and such solutions diluted with acetone to a concentration of 0.001-0.1%. House files were treated topically on the notum by 1 μL of each of the diluted acetone solutions and percent mortality was counted 24 hours after application. Insects were held at a constant temperature of 60° F. Larvicidal activity was determined by applying 1 ml of the acetone solutions in 100 ml of water containing 20 3rd instar mosquito larvae. Results are presented as LD50 in μg/g for house flies and LC50 in ppm for mosquito larvae.

[2] = Mammalian toxicity, oral, Swiss white mice; details: mouse, in vivo
Method: (§2) Mammalian toxicity was determined against Swiss white mice.

[3] = system: mosquito larvae, Culex pipiens; experiment: Larvicidal activity against mosquito larvae; details: 1 ml acetone solution in 100 ml water containing 20 3rd instar larvae
Method: as §1

[4] = system: Swiss white mice; experiment: Mammalian toxicity, oral, Swiss white mice; details: compared with aldicarb / carbofuran
Method: as §2

[5] = 1 μL acetone solution on the notum, mortality 24 hours after application, 60° F
[6] = oral, corn oil carrier, read-out: Mice LD50

Compound | LD50 [2, 6] [mg/kg] | LD50 ([1]; 24 h) [mg/kg] | Culex LC50 [3] [ppm] | other results
CCCCOS(=O)N(C)C(=O)ON=C(C)SC (centres unmarked) [XI, S-methyl N-[N'-methyl-N'-butoxysulfinylcarbamoyloxy]thioacetimidate] | – | – | – | LD50 [1, 5]: 5.5 mg/kg
CCCCCCOS(=O)N(C)C(=O)ON=C(C)SC (centres unmarked) [X, S-methyl N-[N'-methyl-N'-hexoxysulfinylcarbamoyloxy]thioacetimidate] | 260 | – | – | LD50 [1, 5]: 6.5 mg/kg
CCCCCCOS(=O)N(C)C(=O)Oc1cccc2ccccc12 (centres unmarked) [XIII, 1-naphthyl(methyl)(hexoxysulfinyl)carbamate] | > 1000 | 360 | – | –
CCCCCCOS(=O)N(C)C(=O)Oc1cccc2c1OC(C)(C)C2 (centres unmarked) [Example I, 2,3-dihydro-2,2-dimethylbenzofuranyl-7(methyl)(hexoxysulfinyl)carbamate] | 280 | 13 | 0.0025 | –
CN(C(=O)Oc1cccc2c1OC(C)(C)C2)S(=O)Oc1ccccc1 (centres unmarked) [IV, 2,3-dihydro-2,2-dimethylbenzofuranyl-7(methyl)(phenoxysulfinyl)carbamate] | 42 | 6.4 | 0.0055 | –
Cc1cccc(C)c1OS(=O)N(C)C(=O)Oc1cccc2c1OC(C)(C)C2 (centres unmarked) [V, 2,3-dihydro-2,2-dimethylbenzofuranyl-7(methyl)(2,6-dimethylphenoxysulfinyl)carbamate] | 100 | 13.5 | – | –
CCCCCCOS(=O)N(C)C(=O)Oc1ccccc1OC(C)C (centres unmarked) [VIII, 2-isopropoxyphenyl (methyl)(n-hexoxysulfinyl)carbamate] | > 1000 | 42 | 0.01 | –
CNC(=O)O/N=C/C(C)(C)SC [aldicarb, 2-methyl-2-(methylthio)propionaldehyde 0-(methylcarbamoyl)oxime, reference compound] | – | – | – | LD50 ([2]; po, comparison value for parent aldicarb, read-out: LD50 (parent carbamate aldicarb, mammalian toxicity, text)): 0.3 to 0.5 mg/kg
CCCCOS(=O)N(C)C(=O)Oc1cccc(C(C)C)c1 (centres unmarked) [VI, 3-isopropylphenyl (methyl)(n-butoxysulfinyl)carbamate] | – | 50 | – | –
CCCCCCOS(=O)N(C)C(=O)Oc1cccc(C(C)C)c1 (centres unmarked) [VII, 3-isopropylphenyl (methyl)(n-hexoxysulfinyl)carbamate] | > 1000 | 80 | – | –
CCCCOS(=O)N(C)C(=O)Oc1cccc2c1OC(C)(C)C2 (centres unmarked) [III, 2,3-dihydro-2,2-dimethylbenzofuranyl-7(methyl)(n-butoxysulfinyl)carbamate] | 160 | 16 | – | –
CC(C)Oc1ccccc1OC(=O)N(C)S(=O)OC(C)(C)C (centres unmarked) [IX, 2-isopropoxyphenyl (methyl)(t-butoxysulfinyl)carbamate] | 400 | 65 | – | –
CN(C(=O)Oc1cccc2c1OC(C)(C)C2)S(=O)OC(C)(C)C (centres unmarked) [II, 2,3-dihydro-2,2-dimethylbenzofuranyl-7(methyl)(t-butoxysulfinyl)carbamate] | 40 | 2.2 | 0.0058 | –
CCCCCCCCCCOS(=O)N(C)C(=O)ON=CC(C)(C)SC (centres unmarked) [XII, 2-methyl-2-(methylthio)propionaldehyde O-[(methyl)(decoxysulfinyl)carbamoyl]oxime] | 60 | – | 0.006 | mammalian safety/toxicity compared with parent carbamate [4]: much safer to mammals; LD50 [1, 5]: 11.5 mg/kg; toxicity to house flies compared with parent carbamate ([1]; compared with aldicarb / carbofuran): comparable toxicity
